From patent US10894052B2, “Heterocyclic inhibitors of ATR kinase” (Board of Regents, The University of Texas System, priority 2018, dated 2021)
Like-named read-outs stand apart in the source and are kept apart here.

Tests used:
[1] = tested on: ATR-driven phosphorylation of Chk1 kinase at Serine 345 in HT-29 cells; experiment: pCHK1 cellular assay (CHK1 p-Ser345 AlphaScreen SureFire); type: cell-based; details: HT-29 colorectal adenocarcinoma cells, 4-nitroquinoline N-oxide 12 μM, read-out: Cell IC50 (pCHK1)
Protocol: (§1) The ability of the compounds of Formula I to inhibit the catalytic activity of the ATR/ATRIP complex was measured in a Caliper-based assay, and in HT-29 cells in an Alphascreen assay, following the ATR-mediated phosphorylation of CHK1, described below.
Cellular IC50 for the inhibitors of ATR described herein were measured in HT-29 colorectal adenocarcinoma cells.
The microplate was incubated overnight (approximately 20 hours) at 37° C. with 5% CO2 and ambient O2. Stock solutions of the test compounds were prepared in 100% DMSO (Sigma, Catalog #D2650) and serially diluted 1:3 using 100% DMSO. Compounds were additionally diluted 1:33 in culture medium, and 10 μL/well were transferred to the tissue culture plate. Following the compound addition, the microplate was incubated at 37° C. for 90 minutes. […] The cells were then washed with PBS and lysed using 10 μL/well […]® Kit lysis buffer diluted to 1× in water (PerkinElmer Catalog #TGRCHK1S50K), with mixing on an orbital shaker at 500 rpm for 20 min at room temperature. Lysates were frozen at −20 OC overnight.
The pCHK1 ALPHASCREEN® signal was measured using an ENVISION® plate reader (PerkinElmer). IC50 values were calculated using a four-parameter logistic curve fit using Genedata Screener software. Percent of control for each compound concentration was calculated by the following formula: 100*(Compound−Min)/(Max−Min), where “Max” is the high control, DMSO, and “Min” is the low control, 5 μM ATR inhibitor.

[2] = biological target: ATR/ATRIP complex (Homo sapiens (Human), UniProt Q13535); experiment: ATR/ATRIP enzymatic assay (Caliper-based); type: biochemical; details: ATR/ATRIP enzyme; FAM-labeled RAD17 peptide, ATP
Protocol: as §1
Human full-length FLAG-TEV-ATR and His6-ATRIP were co-expressed in HEK293 cells. […] The sample was loaded into a column, and then washed with buffer A three times. Protein was subsequently eluted with 2 ml of buffer B (buffer A+200 μg/ml 3×FLAG peptide).
The ability of new chemical matter to inhibit the ATR catalytic activity in this ATR/ATRIP complex was assessed using a Caliper-based assay. A 2× enzyme solution (i.e., 4 nM enzyme) was prepared using 1× Kinase Reaction Buffer (25 mM HEPES pH 8, 0.0055% Brij-35, 10 mM MnCl2, and 1 mM DTT). […] 10 μL of the 2× enzyme solution was transferred to an assay plate containing 60 nL of test compound (from a 3× serial dilution) in 100% DMSO. Following a 30-min incubation at 28° C., 10 μL of the 2× peptide solution was then transferred to the same assay plate. The reaction incubated at 28° C. for 6 h. After adding 30 μL stop buffer (100 mM HEPES pH 7.5, 0.015% Brij-35, 0.2% Coating-3 Reagent (PerkinElmer, catalog #PN760050), and 50 mM EDTA), data were collected on a Caliper instrument. Conversion values were converted to inhibition values via the following equation: % inhibition=(max−conversion)/(max−min)*100, wherein “max” corresponds to the DMSO control, and “min” corresponds to the low control. IC50 values were calculated using the following equation in XLFit: Y=Bottom+(Top−Bottom)/1+(IC50/X)^HillSlope).

ATR/ATRIP complex, sequence (Q13535 whole entry): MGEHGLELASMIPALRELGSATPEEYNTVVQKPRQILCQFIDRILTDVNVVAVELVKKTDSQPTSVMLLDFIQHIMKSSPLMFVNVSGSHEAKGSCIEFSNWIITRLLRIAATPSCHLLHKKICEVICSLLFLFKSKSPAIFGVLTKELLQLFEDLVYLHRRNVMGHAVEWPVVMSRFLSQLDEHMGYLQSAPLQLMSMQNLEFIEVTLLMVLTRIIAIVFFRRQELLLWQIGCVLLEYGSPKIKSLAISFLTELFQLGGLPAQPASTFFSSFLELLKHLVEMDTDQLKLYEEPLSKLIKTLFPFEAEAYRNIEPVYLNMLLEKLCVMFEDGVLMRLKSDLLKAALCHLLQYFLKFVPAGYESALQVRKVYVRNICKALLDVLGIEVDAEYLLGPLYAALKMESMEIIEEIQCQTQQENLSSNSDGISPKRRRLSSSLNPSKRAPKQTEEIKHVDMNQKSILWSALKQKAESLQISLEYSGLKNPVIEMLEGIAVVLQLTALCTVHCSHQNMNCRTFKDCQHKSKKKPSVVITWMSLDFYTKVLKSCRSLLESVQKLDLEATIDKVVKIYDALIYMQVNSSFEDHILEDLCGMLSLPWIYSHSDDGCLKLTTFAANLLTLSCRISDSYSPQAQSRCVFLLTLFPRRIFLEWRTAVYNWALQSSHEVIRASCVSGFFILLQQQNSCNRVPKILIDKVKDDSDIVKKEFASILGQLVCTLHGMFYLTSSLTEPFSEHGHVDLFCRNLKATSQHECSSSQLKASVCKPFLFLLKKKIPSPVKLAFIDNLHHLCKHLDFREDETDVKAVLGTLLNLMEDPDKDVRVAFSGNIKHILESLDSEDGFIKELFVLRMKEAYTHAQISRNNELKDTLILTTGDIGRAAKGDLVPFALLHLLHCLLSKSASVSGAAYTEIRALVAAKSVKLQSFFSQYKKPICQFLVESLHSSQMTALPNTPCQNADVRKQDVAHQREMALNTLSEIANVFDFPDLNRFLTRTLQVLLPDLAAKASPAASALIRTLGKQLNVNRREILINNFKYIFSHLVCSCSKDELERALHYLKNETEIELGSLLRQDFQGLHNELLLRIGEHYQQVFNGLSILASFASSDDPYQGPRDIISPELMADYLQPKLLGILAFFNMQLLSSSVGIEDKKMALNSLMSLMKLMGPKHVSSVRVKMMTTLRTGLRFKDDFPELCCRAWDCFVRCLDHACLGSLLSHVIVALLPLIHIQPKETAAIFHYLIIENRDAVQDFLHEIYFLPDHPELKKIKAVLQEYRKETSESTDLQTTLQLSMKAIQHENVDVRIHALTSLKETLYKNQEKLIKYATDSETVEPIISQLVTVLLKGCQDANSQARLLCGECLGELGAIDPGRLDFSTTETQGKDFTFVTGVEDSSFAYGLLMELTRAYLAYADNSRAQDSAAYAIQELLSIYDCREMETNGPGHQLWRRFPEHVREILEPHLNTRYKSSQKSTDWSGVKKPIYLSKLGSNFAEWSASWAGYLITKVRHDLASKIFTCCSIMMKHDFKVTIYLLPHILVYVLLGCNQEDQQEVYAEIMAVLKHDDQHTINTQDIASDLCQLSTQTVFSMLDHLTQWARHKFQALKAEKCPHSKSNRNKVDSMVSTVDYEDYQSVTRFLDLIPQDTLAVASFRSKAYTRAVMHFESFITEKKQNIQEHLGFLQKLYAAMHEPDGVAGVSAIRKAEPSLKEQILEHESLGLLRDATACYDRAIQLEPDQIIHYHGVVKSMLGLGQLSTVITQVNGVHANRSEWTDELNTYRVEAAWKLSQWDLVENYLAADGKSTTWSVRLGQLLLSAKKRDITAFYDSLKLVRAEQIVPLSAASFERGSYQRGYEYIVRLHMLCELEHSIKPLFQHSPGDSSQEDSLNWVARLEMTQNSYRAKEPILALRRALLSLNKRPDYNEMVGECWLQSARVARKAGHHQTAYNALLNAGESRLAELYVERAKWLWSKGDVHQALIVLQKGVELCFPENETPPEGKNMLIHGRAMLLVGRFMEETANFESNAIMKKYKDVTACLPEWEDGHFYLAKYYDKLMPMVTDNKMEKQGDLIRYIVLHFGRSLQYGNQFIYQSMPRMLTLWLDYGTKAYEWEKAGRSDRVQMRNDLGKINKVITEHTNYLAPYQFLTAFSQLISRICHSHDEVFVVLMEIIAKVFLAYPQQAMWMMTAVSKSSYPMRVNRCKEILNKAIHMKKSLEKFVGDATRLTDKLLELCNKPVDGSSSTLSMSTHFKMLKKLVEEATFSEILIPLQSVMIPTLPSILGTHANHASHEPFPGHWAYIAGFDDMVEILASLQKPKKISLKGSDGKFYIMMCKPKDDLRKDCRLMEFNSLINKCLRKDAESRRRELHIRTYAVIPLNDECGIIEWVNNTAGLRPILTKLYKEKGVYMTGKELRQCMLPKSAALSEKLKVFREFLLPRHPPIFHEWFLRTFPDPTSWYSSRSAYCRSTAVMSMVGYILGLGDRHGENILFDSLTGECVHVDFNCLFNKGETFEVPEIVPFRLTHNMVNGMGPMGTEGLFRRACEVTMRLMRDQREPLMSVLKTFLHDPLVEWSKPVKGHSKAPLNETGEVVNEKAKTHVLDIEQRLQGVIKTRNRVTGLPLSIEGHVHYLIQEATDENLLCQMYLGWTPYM
ATR/ATRIP complex, sequence (Q8WXE1 whole entry partner): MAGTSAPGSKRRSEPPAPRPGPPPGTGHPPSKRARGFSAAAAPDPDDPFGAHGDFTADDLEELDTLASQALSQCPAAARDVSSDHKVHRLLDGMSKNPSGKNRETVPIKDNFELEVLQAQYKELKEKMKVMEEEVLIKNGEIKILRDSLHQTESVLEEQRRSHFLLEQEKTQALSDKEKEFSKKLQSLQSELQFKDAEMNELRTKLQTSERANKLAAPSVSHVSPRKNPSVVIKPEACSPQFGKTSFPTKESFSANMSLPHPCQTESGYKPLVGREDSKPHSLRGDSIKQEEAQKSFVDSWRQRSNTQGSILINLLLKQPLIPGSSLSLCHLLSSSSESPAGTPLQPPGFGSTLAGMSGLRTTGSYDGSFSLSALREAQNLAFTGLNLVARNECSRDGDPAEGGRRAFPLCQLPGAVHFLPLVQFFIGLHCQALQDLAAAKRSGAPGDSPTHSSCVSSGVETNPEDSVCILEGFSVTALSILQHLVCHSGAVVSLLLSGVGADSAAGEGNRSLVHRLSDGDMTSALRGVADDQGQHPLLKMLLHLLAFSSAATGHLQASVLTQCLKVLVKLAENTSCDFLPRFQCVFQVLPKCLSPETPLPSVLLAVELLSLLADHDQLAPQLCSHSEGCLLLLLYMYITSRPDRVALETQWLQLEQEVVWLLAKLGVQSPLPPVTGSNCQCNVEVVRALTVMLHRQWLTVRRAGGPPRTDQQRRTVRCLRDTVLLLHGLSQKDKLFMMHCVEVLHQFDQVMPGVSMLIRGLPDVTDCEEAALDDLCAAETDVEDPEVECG

Row | Structure (SMILES) | IC50 ([1]; Homo sapiens) [nM] | IC50 [2] [nM] | IC50 [1] [nM]
1 | C[C@@H]1COCCN1c1cc(N=S(C)(C)=O)nc(-c2cc[nH]n2)c1 [Example 37, (R)-dimethyl((4-(3-methylmorpholino)-6-(1H-pyrazol-3-yl)pyridin-2-yl)imino)-λ^6-sulfanone] | 8210 |  | 
2 | C[C@@H]1COCCN1c1cc(N=S(C)(C)=O)nc(-c2ccnn2C)c1 [Example 33, (R)-dimethyl((6-(1-methyl-1H-pyrazol-5-yl)-4-(3-methylmorpholino)pyridin-2-yl)imino)-λ^6-sulfanone] | 615 | 1850 | 
3 | C[C@@H]1COCCN1c1cc(N=S(C)(C)=O)nc(-c2cccc3[nH]cnc23)c1 [Example 23, (R)-((6-(1H-benzo[d]imidazol-4-yl)-4-(3-methylmorpholino)pyridin-2-yl)imino)dimethyl-λ^6-sulfanone] | 467 | 8 | 
4 | CCOc1cc(-c2cc(N3CCOC[C@@H]3C)cc(N=S(C)(C)=O)n2)c2cc[nH]c2n1 [Example 19] |  | 4 | 195
5 | C[C@@H]1COCCN1c1cc(N=S(C)(=O)C2CC2)nc(-c2cncc3[nH]ccc23)c1 (stereo partly shown) [Example 22] |  | 6 | 282
6 | C[C@@H]1COCCN1c1cc(N=S(C)(C)=O)nc(-c2cc(F)cc3[nH]ccc23)c1 [Example 32, (R)-((6-(6-fluoro-1H-indol-4-yl)-4-(3-methylmorpholino)pyridin-2-yl)imino)dimethyl-λ^6-sulfanone] | 195 | 4 | 
7 | C[C@@H]1COCCN1c1cc(N=S(C)(=O)C2COC2)nc(-c2cncc3[nH]ccc23)c1 (stereo partly drawn) [Example 24, methyl((4-((R)-3-methylmorpholino)-6-(1H-pyrrolo[2,3-c]pyridin-4-yl)pyridin-2-yl)imino)(oxetan-3-yl)-λ^6-sulfanone] | 470 | 24 | 
8 | COc1cc(-c2cc(N3CCOC[C@H]3C)cc(N=S(C)(C)=O)n2)c2cc[nH]c2n1 [Example 14, (R)-((6-(6-methoxy-1H-pyrrolo[2,3-b]pyridin-4-yl)-4-(3-methylmorpholino)pyridin-2-yl)imino)dimethyl-λ^6-sulfanone] | 3650 | 48 | 
9 | Cc1nc2ccccc2n1-c1cc(N2CCOC[C@H]2C)cc(N=S(C)(C)=O)n1 [Example 28, (R)-dimethyl((6-(2-methyl-1H-benzo[d]imidazol-1-yl)-4-(3-methylmorpholino)pyridin-2-yl)imino)-λ^6-sulfanone] | 10000 | 24 | 
10 | C[C@@H]1COCCN1c1cc(N=S(C)(C)=O)nc(-c2cncn2C)c1 [Example 35, (R)-dimethyl((6-(1-methyl-1H-imidazol-5-yl)-4-(3-methylmorpholino)pyridin-2-yl)imino)-λ^6-sulfanone] | 9620 |  | 
11 | C[C@@H]1COCCN1c1cc(N=S(C)(C)=O)nc(-c2cccc3[nH]ccc23)c1 [Example 20, (R)-((6-(1H-indol-4-yl)-4-(3-methylmorpholino)pyridin-2-yl)imino)dimethyl-λ^6-sulfanone] | 364 | 12 | 
12 | Cc1nccn1-c1cc(N2CCOC[C@H]2C)cc(N=S(C)(C)=O)n1 [Example 39, (R)-dimethyl((6-(2-methyl-1H-imidazol-1-yl)-4-(3-methylmorpholino)pyridin-2-yl)imino)-λ^6-sulfanone] | 3060 | 3470 | 
13 | C[C@@H]1COCCN1c1cc(N=S2(=O)CCC2)nc(-c2ccnc3[nH]ccc23)c1 [Example 25, (R)-1-((4-(3-methylmorpholino)-6-(1H-pyrrolo[2,3-b]pyridin-4-yl)pyridin-2-yl)imino)-1-λ^6-thietane 1-oxide] | 767 | 9 | 
14 | C[C@@H]1COCCN1c1cc(N=S(C)(C)=O)nc(-c2ccn(C)n2)c1 [Example 38, (R)-dimethyl((6-(1-methyl-1H-pyrazol-3-yl)-4-(3-methylmorpholino)pyridin-2-yl)imino)-λ^6-sulfanone] | 10000 |  | 
15 | C[C@@H]1COCCN1c1cc(N=S(C)(C)=O)nc(-c2cc(Cl)nc3[nH]ccc23)c1 [Example 27, (R)-((6-(6-chloro-1H-pyrrolo[2,3-b]pyridin-4-yl)-4-(3-methylmorpholino)pyridin-2-yl)imino)dimethyl-λ^6-sulfanone] | 660 | 30 | 
16 | C[C@@H]1COCCN1c1cc(N=S(C)(C)=O)nc(-c2ccnc(N)c2)c1 [Example 15, (R)-((2′-amino-4-(3-methylmorpholino)-[2,4′-bipyridin]-6-yl)imino)dimethyl-λ^6-sulfanone] | 875 | 372 | 
17 | C[C@@H]1COCCN1c1cc(N=S(C)(C)=O)nc(-n2c(CF)nc3ccccc32)c1 [Example 8, (R)-((6-(2-(Fluoromethyl)-1H-benzo[d]imidazol-1-yl)-4-(3-methylmorpholino)pyridin-2-yl)imino)dimethyl-λ^6-sulfanone] | 3330 | 5 | 
18 | C[C@@H]1COCCN1c1cc(N=S(C)(=O)C2COC2)nc(-c2ccnc3[nH]ccc23)c1 (stereo partly drawn) [Example 17, methyl((4-((R)-3-methylmorpholino)-6-(1H-pyrrolo[2,3-b]pyridin-4-yl)pyridin-2-yl)imino)(oxetan-3-yl)-λ^6-sulfanone] | 638 | 12 | 
19 | C[C@@H]1COCCN1c1cc(N=S(C)(C)=O)nc(-n2cnc3ccccc32)c1 [Example 11, (R)-((6-(1H-benzo[d]imidazol-1-yl)-4-(3-methylmorpholino)pyridin-2-yl)imino)dimethyl-λ^6-sulfanone] | 3160 | 9 | 
20 | Cc1nc2cccnc2n1-c1cc(N2CCOC[C@H]2C)cc(N=S(C)(C)=O)n1 [Example 4, (R)-Dimethyl((6-(2-methyl-3H-imidazo[4,5-b]pyridin-3-yl)-4-(3-methylmorpholino)pyridin-2-yl)imino)-λ^6-sulfanone] | 10000 | 986 | 
21 | C[C@@H]1COCCN1c1cc(N=S(C)(C)=O)nc(-n2c(N)nc3ccccc32)c1 [Example 9, (R)-((6-(2-Amino-1H-benzo[d]imidazol-1-yl)-4-(3-methylmorpholino)pyridin-2-yl)imino)dimethyl-λ^6-sulfanone] | 159 | 1 | 
22 | C[C@@H]1COCCN1c1cc(N=S(C)(C)=O)nc(-c2cn[nH]c2)c1 [Example 36, (R)-dimethyl((4-(3-methylmorpholino)-6-(1H-pyrazol-4-yl)pyridin-2-yl)imino)-λ^6-sulfanone] | 5560 |  | 
23 | C[C@@H]1COCCN1c1cc(N=S(C)(=O)C2CC2)nc(-c2cncc3[nH]ccc23)c1 (stereo partly drawn) [Example 21, cyclopropyl(methyl)((4-((R)-3-methylmorpholino)-6-(1H-pyrrolo[2,3-c]pyridin-4-yl)pyridin-2-yl)imino)-λ^6-sulfanone] | 110 | 9 | 
24 | Cc1cc2c(-c3cc(N4CCOC[C@H]4C)cc(N=S(C)(C)=O)n3)ccnc2[nH]1 [Example 12, (R)-dimethyl((6-(2-methyl-1H-pyrrolo[2,3-b]pyridin-4-yl)-4-(3-methylmorpholino)pyridin-2-yl)imino)-λ^6-sulfanone] | 99 | 11 | 
25 | CCOc1cc(-c2cc(N3CCOC[C@H]3C)cc(N=S(C)(C)=O)n2)c2cc[nH]c2n1 [Example 18, (R)-((6-(6-ethoxy-1H-pyrrolo[2,3-b]pyridin-4-yl)-4-(3-methylmorpholino)pyridin-2-yl)imino)dimethyl-λ^6-sulfanone] | 470 | 29 | 
